According to ChEMBL document CHEMBL1201862, “PubChem BioAssay data set” (2004):
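Method: 48-hour compound exposure of cells in 96-well plates, five concentrations, linear interpolation of endpoints. GI50 is the concentration that inhibits growth by half.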 Activity calls are given as the source filed them. Rule as the data show it: active = GI50 up to about 1.1 µM and inactive = higher.

Assays:
Assay in all cases: DTP human tumour cell line panel, 48 h
786-0 = tested on: 786-0
A498 = tested on: A498
A549 = tested on: A549
ACHN = tested on: ACHN
BT-549 = tested on: BT-549
CAKI-1 = tested on: CAKI-1
CCRF-CEM = tested on: CCRF-CEM
COLO 205 = tested on: COLO 205
DU-145 = tested on: DU-145
EKVX = tested on: EKVX
HCC 2998 = tested on: HCC 2998
HCT-116 = tested on: HCT-116
HCT-15 = tested on: HCT-15
HL-60 = tested on: HL-60
HOP-62 = tested on: HOP-62
HOP-92 = tested on: HOP-92
HT-29 = tested on: HT-29
Hs-578T = tested on: Hs-578T
IGROV-1 = tested on: IGROV-1
K562 = tested on: K562
KM12 = tested on: KM12
LOX IMVI = tested on: LOX IMVI
M14 = tested on: M14
MCF7 = tested on: MCF7
MDA-MB-231 = tested on: MDA-MB-231
MDA-MB-435 = tested on: MDA-MB-435
MDA-N = tested on: MDA-N
MOLT-4 = tested on: MOLT-4
Malme-3M = tested on: Malme-3M
NCI-H226 = tested on: NCI-H226
NCI-H23 = tested on: NCI-H23
NCI-H460 = tested on: NCI-H460
NCI-H522 = tested on: NCI-H522
NCI/ADR-RES = tested on: NCI/ADR-RES
OVCAR-3 = tested on: OVCAR-3
OVCAR-4 = tested on: OVCAR-4
OVCAR-5 = tested on: OVCAR-5
OVCAR-8 = tested on: OVCAR-8
PC-3 = tested on: PC-3
RPMI-8226 = tested on: RPMI-8226
RXF 393 = tested on: RXF 393
SF-268 = tested on: SF-268
SF-295 = tested on: SF-295
SF-539 = tested on: SF-539
SK-MEL-28 = tested on: SK-MEL-28
SK-MEL-2 = tested on: SK-MEL-2
SK-MEL-5 = tested on: SK-MEL-5
SK-OV-3 = tested on: SK-OV-3
SN12C = tested on: SN12C
SNB-19 = tested on: SNB-19
SNB-75 = tested on: SNB-75
SR = tested on: SR
SW-620 = tested on: SW-620
T47D = tested on: T47D
TK-10 = tested on: TK-10
U-251 = tested on: U-251
UACC-257 = tested on: UACC-257
UACC-62 = tested on: UACC-62
UO-31 = tested on: UO-31

For `CN(C)CCNC(=O)c1ccc(NCCCN(C)CCCNc2ccc3c(=O)n(CCN(C)C)c(=O)n4c5ccccc5c(=O)c2c34)c2c(O)c3ccccc3nc12`, the GI50 (786-0) was < 10 nM (active), the GI50 (A498) was 75.9 nM (active) and the GI50 (A549) was < 10 nM (active). For the same compound, the GI50 (ACHN) was < 10 nM (active), the GI50 (BT-549) was 213 nM (active) and the GI50 (CAKI-1) was 25.8 nM (active). The GI50 (CCRF-CEM) was < 10 nM (active), the GI50 (COLO 205) was < 10.8 nM (active) and the GI50 (DU-145) was < 10 nM (active). The GI50 (EKVX) was 160 nM (active), the GI50 (HCC 2998) was < 10 nM (active) and the GI50 (HCT-116) was < 10 nM (active). The GI50 (HCT-15) was 15.4 nM, the GI50 (HL-60) was 31.8 nM (active) and the GI50 (HOP-62) was < 10 nM (active). For the same compound, the GI50 (HOP-92) was 114 nM (active), the GI50 (HT-29) was < 10 nM (active) and the GI50 (Hs-578T) was 28.5 nM (active). The GI50 (IGROV-1) was < 10 nM (active), the GI50 (K562) was 32.4 nM (active) and the GI50 (KM12) was < 10 nM (active). For the same compound, the GI50 (LOX IMVI) was < 10 nM (active), the GI50 (M14) was 164 nM (active) and the GI50 (MCF7) was < 10 nM (active). The GI50 (MDA-MB-231) was < 27 nM (active), the GI50 (MDA-MB-435) was 12.4 nM (active) and the GI50 (MDA-N) was 33.2 nM (active). For the same compound, the GI50 (MOLT-4) was < 10 nM (active), the GI50 (Malme-3M) was 27.1 nM (active) and the GI50 (NCI-H226) was < 21.4 nM (active). For the same compound, the GI50 (NCI-H23) was < 14.6 nM (active), the GI50 (NCI-H460) was < 10 nM (active) and the GI50 (NCI-H522) was 10.2 nM (active). The GI50 (NCI/ADR-RES) was 221 nM (active), the GI50 (OVCAR-3) was < 11 nM (active) and the GI50 (OVCAR-4) was < 10 nM (active). The GI50 (OVCAR-5) was 19.2 nM (active), the GI50 (OVCAR-8) was < 10 nM (active) and the GI50 (PC-3) was < 10 nM (active). The GI50 (RPMI-8226) was < 10 nM (active), the GI50 (RXF 393) was 75 nM (active) and the GI50 (SF-268) was < 10 nM (active). The GI50 (SF-295) was < 10 nM (active), the GI50 (SF-539) was 138 nM (active) and the GI50 (SK-MEL-28) was 234 nM (active). The GI50 (SK-MEL-2) was 31.5 nM (active), the GI50 (SK-MEL-5) was 61.7 nM (active) and the GI50 (SK-OV-3) was < 10 nM (active). For the same compound, the GI50 (SN12C) was < 10 nM (active), the GI50 (SNB-19) was < 10 nM (active) and the GI50 (SNB-75) was < 10 nM (active). For the same compound, the GI50 (SR) was < 10 nM (active), the GI50 (SW-620) was < 10 nM (active) and the GI50 (T47D) was 165 nM (active). For the same compound, the GI50 (TK-10) was 47.1 nM (active), the GI50 (U-251) was < 10 nM (active) and the GI50 (UACC-257) was 162 nM (active). For the same compound, the GI50 (UACC-62) was 67.8 nM (active) and the GI50 (UO-31) was < 10 nM (active).

For `CN(C)/C=N/S(=O)(=O)c1nn2c(C=O)c(-c3ccc(-c4ccc([N+](=O)[O-])cc4)o3)nc2s1`, the GI50 (786-0) was 1070 nM (active), the GI50 (A498) was 15300 nM (inactive) and the GI50 (A549) was 3620 nM (inactive). The GI50 (ACHN) was 1970 nM (inactive), the GI50 (BT-549) was 1720 nM (inactive) and the GI50 (CAKI-1) was 308 nM (active). For the same compound, the GI50 (CCRF-CEM) was 426 nM (active), the GI50 (COLO 205) was 1990 nM (inactive) and the GI50 (DU-145) was 3640 nM (inactive). The GI50 (EKVX) was 5070 nM (inactive), the GI50 (HCC 2998) was 5330 nM (inactive) and the GI50 (HCT-116) was 1340 nM (inactive). For the same compound, the GI50 (HCT-15) was 2210 nM, the GI50 (HL-60) was 807 nM (active) and the GI50 (HOP-62) was 7430 nM (inactive). The GI50 (HOP-92) was 1840 nM (inactive), the GI50 (HT-29) was 611 nM (active) and the GI50 (Hs-578T) was 3880 nM (inactive). The GI50 (IGROV-1) was 1720 nM (inactive), the GI50 (K562) was 1100 nM (active) and the GI50 (KM12) was 5640 nM (inactive). The GI50 (LOX IMVI) was 2330 nM (inactive), the GI50 (M14) was 2120 nM (inactive) and the GI50 (MCF7) was 2130 nM (inactive). For the same compound, the GI50 (MDA-MB-231) was 2650 nM (inactive), the GI50 (MDA-MB-435) was 2680 nM (inactive) and the GI50 (MDA-N) was 1100 nM (active). For the same compound, the GI50 (MOLT-4) was 1190 nM (inactive), the GI50 (Malme-3M) was 1780 nM (inactive) and the GI50 (NCI-H226) was 20500 nM (inactive). For the same compound, the GI50 (NCI-H23) was 3100 nM (inactive), the GI50 (NCI-H460) was 1630 nM (inactive) and the GI50 (NCI-H522) was 1380 nM (inactive). For the same compound, the GI50 (NCI/ADR-RES) was 8150 nM (inactive), the GI50 (OVCAR-3) was 2070 nM (inactive) and the GI50 (OVCAR-4) was 3540 nM (inactive). For the same compound, the GI50 (OVCAR-5) was 4040 nM (inactive), the GI50 (OVCAR-8) was 8040 nM (inactive) and the GI50 (PC-3) was 3370 nM (inactive). For the same compound, the GI50 (RPMI-8226) was 931 nM (active), the GI50 (RXF 393) was 1910 nM (inactive) and the GI50 (SF-268) was 4610 nM (inactive). The GI50 (SF-295) was 7080 nM (inactive), the GI50 (SF-539) was 2150 nM (inactive) and the GI50 (SK-MEL-28) was 2400 nM (inactive). The GI50 (SK-MEL-2) was 7280 nM (inactive), the GI50 (SK-MEL-5) was 4760 nM (inactive) and the GI50 (SK-OV-3) was 36100 nM (inactive). The GI50 (SN12C) was 1710 nM (inactive), the GI50 (SNB-19) was 13900 nM (inactive) and the GI50 (SNB-75) was 9180 nM (inactive). The GI50 (SR) was 883 nM (active), the GI50 (SW-620) was 933 nM (active) and the GI50 (T47D) was 5520 nM (inactive). The GI50 (TK-10) was 3390 nM (inactive), the GI50 (U-251) was 2250 nM (inactive) and the GI50 (UACC-257) was 7410 nM (inactive). The GI50 (UACC-62) was 3680 nM (inactive) and the GI50 (UO-31) was 1910 nM (inactive).
